Test results reported in the SangsterLogP compilation.
Values belong to the compound of their own block, whether it stands above or below them.

What was measured:
[1] = method code SF, from DOI: 10.1016/j.bmcl.2006.04.097, PMID: 16714112
[2] = method code SF-HPLC, from DOI: 10.1016/0378-5173(87)90096-2; conditions: pH 8.0
[3] = method code SF-AS, from DOI: 10.1016/0006-2952(80)90068-4, PMID: 6775639
[4] = not given; remark: listed apart in the source
[5] = method code SF-HPLC, from DOI: 10.1023/a:1015862319927, PMID: 2062808; conditions: pH 7.4
[6] = method code SF, from DOI: 10.1016/0223-5234(94)90060-4; conditions: pH 7.4
[7] = method code SF-HPLC, from DOI: 10.1007/s00216-006-0868-5, PMID: 17082876
[8] = not given; remark: listed apart in the source
[9] = method code SF-AS, from DOI: 10.1021/jm00297a026, PMID: 5441130
[10] = method code SF, from DOI: 10.1016/s0378-5173(98)00231-2
[11] = method code SF-AS, from DOI: 10.1016/s0021-9673(01)91572-9, PMID: 2376602; conditions: pH 7.0
[12] = method code SF-GLC, from DOI: 10.1016/j.chemosphere.2004.08.061, PMID: 15519382
[13] = method code SF-HPLC, from Peips, M.; Sikk, P.; Aaviksaar, A. (1986). Hydrophobic interaction in the active sites of serine proteases from thermoactinomycetes. Org. React., 23(3)261-271.; conditions: pH 2.2
[14] = from Dutta, H.; Mehta, N.; SenGupta, M.; Pal, D.; Sengupta, C.; De, A. (1988). Dioxanide furoate: studies on its interaction with blood phospholipid in relation to partition coefficients of related drugs. …
[15] = method code SF-HPLC, from DOI: 10.1016/0378-5173(86)90071-2; conditions: pH 7.4
[16] = method code SF-NMR, from DOI: 10.1021/jm00157a023, PMID: 3806574
[17] = method code SF-RC, from Audran, M.; Chanal, J.; Berge, G.; Marignan, R. (1983). Binding-structure correlation of bovine serum albumin in a series of cresotinamides. International Journal of Pharmaceutics, 15(3)273-284.; conditions: pH 1.0
[18] = method code SF-AS, from DOI: 10.1002/jps.2600611027, PMID: 5072421
[19] = method code SF-CR+DM, from DOI: 10.1021/ja01573a017; conditions: pH 6.5
[20] = method code SF, from DOI: 10.1021/bk-1995-0606.ch004
[21] = method code SF-HPLC, from DOI: 10.1248/cpb.41.694
[22] = not given; remark: listed apart in the source
[23] = method code SF, from DOI: 10.1080/09553008714551831, PMID: 3497891; conditions: pH 7.4
[24] = method code SF, from DOI: 10.1016/0048-3575(88)90017-x
[25] = method code SF, from DOI: 10.3109/00498258709043934, PMID: 3564538
[26] = method code SF-AS, from DOI: 10.1021/acs.inorgchem.5b01238, PMID: 26280387
[27] = method code SF-AS, from DOI: 10.1021/jm00075a005, PMID: 8246220; conditions: pH 7.4

SMILES: FC(F)(F)c1ccccc1C1=NCCO1
logP [1]: 2.15

SMILES: NC(=O)CCCc1cccnc1
logD [2]: 0.07

SMILES: CCc1ccc2ccccc2c1
logP [4]: 4.38

SMILES: CCC(=O)OCC1OC(n2cc(I)c(=O)[nH]c2=O)CC1O (centres undefined)
logD [5]: 0.68

SMILES: CC(=O)OCC1OC(n2ccc(N)nc2=O)CS1 (centres undefined)
logD [6]: 0.51

SMILES: O=S1(=O)OC(c2cc(Br)c(O)c(Br)c2)(c2cc(Br)c(O)c(Br)c2)c2ccccc21
logP [7]: 4.88

SMILES: CCCCCn1cnc2c(N)ncnc21
logP [9]: 1.79

SMILES: OCCCc1ccccc1
logP [10]: 1.83

SMILES: Cn1c(Cl)c(Cl)c(Br)c1-c1c(Br)c(Br)c(Cl)n1C
logP [12]: 6.5

SMILES: COC(=O)[C@H](Cc1ccccc1)NC(C)=O
logD [13]: 0.92

SMILES: CCOCCOCCOP(=O)(N1CC1)N1CC1
logP [16]: 0.1

SMILES: Cc1cc(Br)cc(C(=O)NC2CC2)c1O
logD [17]: 3.8

SMILES: CCCCCC(NC(C)=O)C(=O)OC (centres undefined)
logD [13]: 1.28

SMILES: Cc1cc2ccccc2cc1C
logP [4]: 4.4

SMILES: NC(=O)CCCCc1ccccn1
logD [2]: 0.4

SMILES: CCCCCCCc1ccncc1
logP [18]: 5

SMILES: Cc1ccc(NC(=O)c2ccco2)c(O)c1
logD [19]: 2.84

SMILES: CCCCC(NC(C)=O)C(=O)OC (racemic)
logD [13]: 0.79

SMILES: COP(=O)(OC)Oc1c(Cl)cc(C)cc1Cl
logP [20]: 2.66

SMILES: COCCc1ccc(OCC(O)CNC(C)C)cc1 (centres undefined)
logP [22]: 1.65

SMILES: COP(=O)(OC)Oc1ccc(C#N)cc1
logP [20]: 0.84

SMILES: O=C1C(c2[nH]c3ccc(S(=O)(=O)O)cc3c2O)=Nc2ccc(S(=O)(=O)O)cc21
logP [3]: -2

SMILES: CN(C)C(=O)OCc1ccc(C(N)=O)cc1
logP [21]: 0.77

SMILES: CCOP(=O)(Oc1ccc(C#N)cc1)c1ccccc1 (centres undefined)
logP [20]: 2.44

SMILES: COC(=O)C(=Cc1cnc(S(C)=O)n1C)C(=O)OC (centres undefined)
logD [23]: -0.43

SMILES: CC(=O)OCN1C(=O)C(C)=C(C)C1=O
logP [24]: 0.65

SMILES: CC(=O)OCN1C(=O)c2ccccc2C1=O
logP [24]: 1.15

SMILES: NC(=O)CCCc1ccncc1
logD [2]: 0.06

SMILES: CC(C)(C)NCC(O)COc1cccc2c1C[C@H](O)[C@H](O)C2 (some centres undefined)
logP [22]: 1.27

SMILES: Oc1ccc(Cl)c2ccccc12
logD [19]: 4.1

SMILES: CCCC(=O)OCOc1ccccc1C(N)=O
logD [15]: 1.66

SMILES: OCCCCCc1ccccc1
logP [10]: 2.89

SMILES: O=c1[nH]c(=O)n([C@H]2C[C@H](O)[C@@H](CO)O2)cc1I
logD [5]: -0.95

SMILES: CC(=O)OCN1Cc2ccccc2C1=O
logP [24]: 0.99

SMILES: CC(=O)C=Cc1ccccc1
logP [22]: 2.13

SMILES: CCCOC(=O)C(C(=O)OCCC)=C1SC=CS1
logP [25]: 3.93

SMILES: N=C(Nc1ccccc1)Nc1ccccc1
logP [7]: 2.85

SMILES: CCSC(=S)C=C(O)c1cccc(O)c1
logP [26]: 1.73

SMILES: CCCCCc1ccncc1
logP [18]: 3.75

SMILES: CON1C(=O)CC2(CCCC2)C1=O
logD [27]: 1.15

SMILES: CC(=O)Oc1ccc(N(C)C(=O)C(Cl)Cl)cc1
logP [14]: 1.56

SMILES: O=P(N1CCOCCOCCOCCOCC1)(N1CC1)N1CC1
logP [16]: 0.12

SMILES: CSC(=S)C=C(O)c1cccc(O)c1
logP [26]: 1.71

SMILES: Cc1cccc2ccccc12
logP [4]: 3.87

SMILES: Cc1cn([C@H]2C[C@H](O)[C@@H](CO)O2)c(=O)[nH]c1=O
logP: -1.04

SMILES: O=C1CC2(CCCC2)C(=O)N1OCc1ccccc1
logD [27]: 2.3

SMILES: CC1=C(C)C(=O)C(C)=C(C)C1=O
logP [3]: 2.12

SMILES: Cc1ccc(NC(=O)c2ccccc2)c(O)c1
logD [19]: 3.08

SMILES: O=C(OC[C@H]1O[C@@H](n2cc(I)c(=O)[nH]c2=O)C[C@@H]1O)c1ccccc1
logD [5]: 1.4

SMILES: CSC(=S)C=C(O)c1ccc(O)cc1
logP [26]: 1.9

SMILES: CCOCCOCCOP(=O)(N1CC1(C)C)N1CC1(C)C (centres undefined)
logP [16]: 0.22

Next, values leading:

logP: 1.15
SMILES: CCC(C)C(NC(=O)C(=O)OCC1OC(n2cc(C)c(=O)[nH]c2=O)CC1N=[N+]=[N-])C(=O)O (centres undefined)

logP [3]: 1.47
SMILES: CC1=CC(=O)C(C)=C(C)C1=O

logP [8]: 2.96
SMILES: CCCNCc1ccc(C)cc1

logP [10]: 3.29
SMILES: OCCCCCCc1ccccc1

logD [11]: -1.05
SMILES: Nc1nc(=O)n([C@H]2CC[C@@H](CO)O2)cc1F

logP [8]: 1.96
SMILES: CNCc1ccc(C)cc1

logP [14]: 1.9
SMILES: CC(=O)Oc1ccc(NC(=O)C(Cl)Cl)cc1

logD [15]: 0.52
SMILES: CC(=O)OCOc1ccccc1C(N)=O

logP [12]: 6.7
SMILES: Cn1c(Br)c(Br)c(Br)c1-c1c(Br)c(Br)c(Br)n1C

logP [14]: 1.78
SMILES: CN(C(=O)C(Cl)Cl)c1ccc(O)cc1

logD [6]: 1.24
SMILES: CC(C=CC1=C(C)CCCC1(C)C)=CC=CC(C)=CC(=O)OCC1OC(n2ccc(N)nc2=O)CS1 (centres undefined)

logP [1]: 2.3
SMILES: Ic1ccccc1C1=NCCO1

logP [12]: 6.6
SMILES: Cn1c(Cl)c(Br)c(Br)c1-c1c(Br)c(Br)c(Br)n1C

logP [21]: 2.86
SMILES: CSc1ccc(COC(=O)N(C)C)cc1

logP: 1.2
SMILES: Cc1cn(C2CC(N=[N+]=[N-])C(COC(=O)C(=O)NC(Cc3ccccc3)C(=O)O)O2)c(=O)[nH]c1=O (centres undefined)

logP [18]: 4.35
SMILES: CCCCCCc1ccncc1

logD [23]: 0.49
SMILES: COC(=O)C(=Cc1cnc(S(C)(=O)=O)n1C)C(=O)OC

logD [17]: 4.21
SMILES: CCCCNC(=O)c1cc(Br)cc(C)c1O

logP [8]: 4.26
SMILES: CCCCCNCc1ccc(C)cc1

logP [9]: 0.14
SMILES: CCC(O)Cn1cnc2c(N)ncnc21 (centres undefined)

logP [7]: 1.04
SMILES: CC(=O)CC(=O)Nc1ccccc1

logD [17]: 3.51
SMILES: CNC(=O)c1cc(Br)cc(C)c1O

logD [15]: 2
SMILES: CC(C)(C)C(=O)OCOc1ccccc1C(N)=O

logD [23]: -0.28
SMILES: CC(OCC=CCO)N1C=CNC1[N+](=O)[O-] (centres undefined)

logP [21]: 1.98
SMILES: CN(C)C(=O)OCc1cccc([N+](=O)[O-])c1

logP [9]: 1.16
SMILES: CCCCC(CO)n1cnc2c(N)ncnc21 (centres undefined)

logD [11]: -1.3
SMILES: Nc1ncnc2c1ncn2C1C=C(CO)C(O)C1O (centres undefined)

logD [11]: -2.3
SMILES: Nc1ccn([C@@H]2C=C(CO)[C@@H](O)[C@H]2O)c(=O)n1

logP [25]: 3.75
SMILES: CC(C)OC(=O)C(C(=O)OC(C)C)=C1SC=CS1

logP [1]: 2.21
SMILES: Cc1cccc(C)c1C1=NCCO1

logD [6]: 1.23
SMILES: CC(C=CC1=C(C)CCCC1(C)C)=CC=CC(C)=CC(=O)Nc1ccn(C2CSC(CO)O2)c(=O)n1 (centres undefined)

logD [27]: 2.53
SMILES: O=C1CC2(CCCC2)C(=O)N1OCc1ccc(Cl)cc1

logP [25]: 2.9
SMILES: CCOC(=O)C(C(=O)CC)=C1SC=CS1
